One data set has as its system C. neoformans. Type of data set: cell-based, Cryptococcus neoformans. Particulars: 72 h. The procedure:
The minimum inhibitory concentration (MIC) of peptoids against fungal pathogens C. albicans and C. neoformans was determined following CLSI guidelines (CLSI. Reference method for broth dilution antifungal susceptibility testing of yeasts; approved standard-third edition; CLSI document M27-A3. (Clinical and Laboratory Standards Institute, 2008). […] This inoculant was diluted 1:100 into RPMI-MOPS and then further diluted 1:20 into RPMI-MOPS. 198 μL of inoculant was seeded into each well of a 96 well black-walled plate. 2-fold serial dilutions of 100× peptoid solutions were prepared in water and 2 μL of peptoid were added to each well in triplicate. […] MIC was defined as the lowest concentration of compound preventing fungal growth. This assay was repeated 3 times on separate days with each compound. […] The addition of 0.1 mL cell solution to 9.9 mL of RPMI-MOPS produced a 1:100 cell solution. After vortexing, 0.5 mL of the […] was added to 9.5 mL RPMI-MOPS to produce a 1:20 cell solution. 198 μL of the 1:20 solution was added to the wells of an opaque 96-well plate, apart from the wells designated for the medial control. […] Amphotericin B was used as a positive control, and sterile water was used for the vehicle control. The plates were incubated for 72 hours at 35° C. After incubation, the concentration of compound resulting in no visual growth was recorded as the MIC. All assays performed in biological triplicate on different days.

A short description of data set [1]: Mammalian cytotoxicity, MTT, HepG2. Type of data set: cell-based, human. Particulars: human, HepG2 hepatocellular carcinoma cells. How it is done:
(§1) Hepatocellular carcinoma (HepG2), mouse fibroblast (3T3), human lung (HPL1A), and human keratinocyte (HaCat) cells were cultured in Dulbecco modified eagle media (DMEM) containing 10% fetal bovine serum (FBS) and 1% penicillin, streptomycin, and glutamine (PSG) at 37° C. and 5% CO2. Cells were collected and adjusted to […] to 4×10^5 cells/mL in phenol-red free DMEM and plated (100 μL) 96 well plates. 2-fold serial dilutions of 10× peptoid (11.1 μL) were added to each well in triplicate. Water (vehicle) was used as a negative control. Plates were incubated at 37° C. in 5% CO2 for 72 hours. Thiazolyl blue tetrazolium bromide (MTT) was added to each well (5 mg/mL; 20 μL) and incubated for 3 hours. Media was removed, DMSO (100 μL) was added, and plates were incubated at 37° C. for 10 minutes. Plates were read on a SpectraMax M5 plate reader (Abs. 570 nm). The concentration of compound resulting in a 50% reduction in growth compared to control (toxicity dose 50%; TD50) was determined using GraFit. This procedure was repeated three times on separate days.
(§2) Cytotoxicity against HepG2 hepatocellular carcinoma cells was done as previously described (Green et al. ACS infectious diseases, (2022); Corson et al. ACS medicinal chemistry letters 7 12, 1139-1144 (2016)). HepG2 cells were maintained in culture in T-75 flasks using Dulbecco's Modified Eagle's Media (DMEM) with phenol red pH indicator and supplemented with 10% fetal bovine serum (FBS) and 1% penicillin, streptomycin, and glutamine (PSG). The cells were incubated at 37° C. and 5% CO2 in a humidified incubator until desired confluency was achieved. The media was removed from the flask, and the cells were washed 1× with 10 mL of phosphate-buffered saline (PBS; 11.8 mM phosphate, 140.4 mM NaCl; pH 7.4) which was then discarded. To remove the adhered cells from the flask, 2 mL of trypsin was added, and the cells were incubated for 10 minutes. To quench the trypsin, 8 mL of phenol red-free DMEM with 10% FBS and 1% PGS was added, and the cell solution was transferred to a 15 mL conical tube. After the cells were pelleted by centrifugation at 1000 rpm for 5 minutes, the supernatant was poured off and cells resuspended in the volume of phenol red-free media needed for the assay. Cell concentration was determined by counting with a hemocytometer, and the solution was diluted with media until a concentration of 1×10^5 cells/mL was achieved. A 100 μL aliquot of cell solution was added to each well of a 96-well plate, apart from the 3 wells used for a media control. Cells were incubated for 2-3 hours at 37° C. and 5% CO2 until cells were adherent.
(§3) Compound stocks of 20 mg/mL were used to prepare 2-fold serial dilutions of each compound in sterile water, giving final concentrations of 200, 100, 50, 25, 12.5, 6.25, 3.13 and 1.56 μg/mL. 11.1 μL of prepared compound solutions was added to the appropriate wells in triplicate. A negative vehicle control of sterile water, as well as the aforementioned media control, were used. The plates were incubated for 72 hours at 37° C. and 5% CO2. After incubation, 20 μL of 5 mg/mL 3-(4,5-dimethylthiazol-2-yl)-2,5-diphenyltetrazolium bromide (MTT) in water was added to each well. The plate was incubated for 3 hours at 37° C. and 5% CO2. Media was removed from each well using a sterile glass Pasteur pipette. 100 μL of DMSO was added to each well and incubated for 15 minutes at 37° C. Absorbance was read at 570 nm using a SpectraMax M5 Plate Reader. This MTT assay was performed in biological duplicate unless discrepant results were observed. If this was the case, the assay was performed in biological triplicate for further verification. The reported value is the average of biological replicates with standard deviation.

Data set [2] deals with HepG2 hepatocellular carcinoma cells. Briefly: Mammalian cytotoxicity, MTT, HepG2. Type of data set: cell-based, human. The procedure:
as §1, §2, §3

A short description of data set [3]: Percent acetonitrile at elution during RP-HPLC purification (hydrophobicity). The data set is classed as physicochemical. Particulars: percent acetonitrile at the time of elution from HPLC. The text has this: All RMG8-8 derivatives were synthesized via the solid-phase submonomer synthesis method on polystyrene Rink Amide resin (Zuckermann et al. Journal of the American Chemical Society 114, 10646-10647 (1992)). The amines used during synthesis and the peptoid shorthand notations for each monomer are provided in Table 7 and Table 8, respectively. Compounds were purified to greater than 95% by RP-HPLC and compound identity was confirmed by ESI-TOF MS (Table 9). The calculated distribution coefficient at pH 7.4 (c Log D7.4) (via Chemaxon. MarvinSketch 19.17.0, 2019) and the percent acetonitrile at the time of elution during HPLC purification were recorded and serve as measures of hydrophobicity (Table 10). Higher values for c Log D7.4 and percent acetonitrile are indicators of increased compound hydrophobicity. With antimicrobial peptoids, hydrophobicity is directly related to both antimicrobial activity and cytotoxicity (Andreev et al. Biochimica et biophysica acta. Biomembranes 1860 6, 1414-1423 (2018); Bolt et al. Med chem comm 8, 886-896 (2017); Frederiksen et al. Molecules 24, (2019)). The ideal balance of these parameters generally must be determined experimentally. To measure antifungal activity, the minimum inhibitory concentration (MIC), defined as the concentration of compound required to inhibit 90% of fungal growth, was determined against C. neoformans using the broth microdilution method. Mammalian cytotoxicity was evaluated through a cell metabolic activity assay with HepG2 liver carcinoma cells, and select, potentially promising compounds were tested for unwanted hemolytic activity against human red blood cells.
Peptoids were purified via Reversed-Phase High-Performance Liquid Chromatography (RP-HPLC) using a Varian Prepstar SD-1. A gradient of 0-100% water to acetonitrile containing 0.05% TFA made up the mobile phase, and a Supelco Ascentis C18 column (5 μm; 25 cm×21.2 mm; Sigma-Aldrich 581347-U) was used as the stationary phase. Peaks in the chromatogram above 0.1 AU were collected and analyzed via mass spectrometry. The peak product with the desired peptoid was dried down in vacuo and lyophilized overnight. Peptoids were then reconstituted in sterile […] deionized water to create compound stocks of 20 mg/mL.

The subject of data set [4] is human red blood cells (hRBC). Briefly: Hemolytic activity against human red blood cells. The data set is classed as cell-based. Particulars: Example 2; same donor sample of hRBCs. The procedure: Hemolytic activity was determined using single donor human red blood cells (hRBC). hRBCs were washed with PBS and centrifuged (1000 RPM; 10 minutes) three times, resuspended in PBS and aliquoted (100 μL) in 96 well plates. 2-fold serial dilutions of 10× peptoid final concentrations in PBS were prepared and added to wells in triplicate. PBS was used as a vehicle control and 1% Triton X-100 as a positive control. Plates were incubated for 1 hour (37° C.; 5% CO2) then centrifuged (1000 RPM; 10 minutes) and supernatant was diluted 1:20 into PBS in a new 96-well plate. Plates were read on a SpectraMax M5 plate reader (Abs. 405 nm). Percent hemolysis was determined by the following equation: […]
GraFit was used to determine concentrations at 50% hemolytic activity (HC50) and the Hill coefficient (H). Hemolytic activity at 10% (HC10) was then determined by the following equation: […]
The hemolytic activity of select peptoids was determined as done previously (Green et al. ACS medicinal chemistry letters 12 9, 1470-1477 (2021); Middleton et al. Bioorganic & medicinal chemistry letters 28 22, 3514-3519 (2018)). Selected peptoids were prepared in 2-fold serial dilutions in PBS at the desired concentrations. Human red blood cells (hRBCs, 9 mL) were centrifuged at 1000 rpm for 10 minutes, and the supernatant was removed and discarded. A 10 mL aliquot of PBS was used to resuspend the hRBCs which were centrifuged again at 1000 rpm for 10 minutes. This PBS wash was completed two more times for a total of three washes. A 9 mL aliquot of PBS was added to the hRBCs, and 100 μL of cell solution was added to individual wells of a 96-well plate. Peptoid solutions (11.1 μL) were added to the appropriate wells in triplicate. A vehicle control of PBS and positive control of 1% Triton X-100 were added to wells in triplicate.
The plate was incubated at 37° C. for 1 hour and centrifuged at 1000 rpm for 10 minutes. For each well, 5 μL of supernatant was transferred to 95 μL of PBS in a new 96-well plate. The absorbance at 405 nm was measured using a SpectraMax M5 Plate Reader, and the percent hemolysis was calculated as follows: […]

In brackets after ≈: the same amount, converted by molar mass. Where a SMILES comes first, the peptide text is derived from it. [ ]: non-standard residue; d: D form. N(tridecyl)Gly = CCCCCCCCCCCCCNCC(=O)O; N(4-F-Bzl)Gly = O=C(O)CNCc1ccc(F)cc1; Gly(N-2-aminoethyl) = NCCNCC(=O)O; Nspe = C[C@H](NCC(=O)O)c1ccccc1; Gly(N-cPent) = O=C(O)CNC1CCCC1; N(iPr)Gly = CC(C)NCC(=O)O; NPhGly = O=C(O)CNc1ccccc1; Nlys = NCCCCNCC(=O)O Where only a bound is given, the exact number is not on record here.

As to `CCCCCCCCCCCCCNCC(=O)N(CC(=O)N(CCCC[N+](C)(C)C)CC(=O)N(CC[N+](C)(C)C)CC(=O)N(CC(N)=O)C1CCCCC1)C1CCCCC1` [Compound 1], in the data set with C. neoformans, the “C. neoformans MIC” value turned out to be 12.5 µg/mL. For the same compound, the CC50 at 72 h in data set [1] was over 200 µg/mL. Further, the “HepG2 TD50” value in data set [2] was over 200 µg/mL.
Turning to `CCCCCCCCCCCCCNCC(=O)N(CC(=O)N(CCCCN)CC(=O)N(CCN)CC(=O)N(CC(N)=O)C(C)C)C(C)C` [Compound 8] (H-[N(tridecyl)Gly][N(iPr)Gly][Nlys][Gly(N-2-aminoethyl)][N(iPr)Gly]-NH2), the “C. neoformans MIC” value in the data set with C. neoformans is 25 µg/mL. For the same compound, the CC50 at 72 h in data set [1] was over 200 µg/mL. The “HepG2 TD50” value in data set [2] is given as “greater than 200 μg/mL”. The “% ACN” value in data set [3] worked out at 66.7%.
As for `CCCCCCCCCCCCCNCC(=O)N(CC(=O)N(CCCCN)CC(=O)N(CCN)CC(=O)N(CC(N)=O)C1CCCC1)C1CCCC1` [Compound 11] (H-[N(tridecyl)Gly][Gly(N-cPent)][Nlys][Gly(N-2-aminoethyl)][Gly(N-cPent)]-NH2), the “C. neoformans MIC” value with C. neoformans turned out to be 6.25 µg/mL. The compound further displayed a CC50 at 72 h in data set [1] of over 200 µg/mL. Also, in data set [2], the “HepG2 TD50” value is “greater than 200 μg/mL”. The “% ACN” value in data set [3] was determined as 68.1%.
For `CCCCCCCCCCCCCNCC(=O)N(CC(=O)N(CCCCN)CC(=O)N(CCN)CC(=O)N(CC(N)=O)CC1CCCO1)CC1CCCO1` (stereo not drawn) [Compound 13], the “C. neoformans MIC” value with C. neoformans fell in the range of 12.5 to 25 µg/mL. In data set [1], this compound registered a half-maximal cytotoxic concentration (CC50) at 72 h of over 200 µg/mL. In addition, the “HepG2 TD50” value in data set [2] is listed as “greater than 200 μg/mL”. Further, the “% ACN” value in data set [3] is 67.3%.
`CCCCCCCCCCCCCNCC(=O)N(CC(=O)N(CCCCN)CC(=O)N(CCN)CC(=O)N(CC(N)=O)c1ccccc1)c1ccccc1` [Compound 14] (H-[N(tridecyl)Gly][NPhGly][Nlys][Gly(N-2-aminoethyl)][NPhGly]-NH2): the “C. neoformans MIC” value in the data set on C. neoformans was in the range of 1.56 to 3.13 µg/mL. The midpoint of cytotoxicity in data set [1], the CC50 at 72 h, lay at 81 ± 25 µg/mL (≈ 108 µM). In data set [3], the “% ACN” value came out at 67.7%.
As to `CCCCCCCCCCCCCNCC(=O)N(CC(=O)N(CCCCN)CC(=O)N(CCN)CC(=O)N(CC(N)=O)[C@@H](C)c1ccccc1)[C@@H](C)c1ccccc1` [Compound 16] (H-[N(tridecyl)Gly][Nspe][Nlys][Gly(N-2-aminoethyl)][Nspe]-NH2), the “C. neoformans MIC” value in the data set on C. neoformans was in the range of 1.56 to 3.13 µg/mL. Further, in data set [1], half-maximal cytotoxicity (CC50 at 72 h) was put at 167 ± 104 µg/mL (≈ 207 µM). Besides, in data set [4], the “hRBC HC10” value worked out at 38 ± 11 µg/mL.
The corresponding values for `CCCCCCCCCCCCCNCC(=O)N(CC(=O)N(CCCCN)CC(=O)N(CCN)CC(=O)N(CC(N)=O)Cc1ccc(F)cc1)Cc1ccc(F)cc1` [Compound 17] (H-[N(tridecyl)Gly][N(4-F-Bzl)Gly][Nlys][Gly(N-2-aminoethyl)][N(4-F-Bzl)Gly]-NH2) are 1.56 to 3.13 µg/mL, 150 ± 7 µg/mL (≈ 184 µM) and 59 ± 22 µg/mL.

A word on the CC50: it is the concentration giving 50% cytotoxicity. Low readings indicate greater toxicity to the cells, high ones lower toxicity to the cells.

The record behind these values is patent publication US20240352066A1, “ANTIMICROBIAL COMPOUNDS AND THE METHOD OF USE” (priority 2021, published 2024).
